Test results reported in PMC8151276, “An Integrated Approach toward NanoBRET Tracers for Analysis of GPCR Ligand Engagement” (Molecules, 2021).

Tests used:
Assay type in all cases: binding
OPRL1 = target: T1, OPRL1 (Homo sapiens, UniProt P41146); experiment: NanoBRET screen HiBiT-OPRL1 in HEK293
T1 construct: purchased Promega (in-house HiBiT-GPCR construct library, NanoBRET)
Protocol: (§1) Each tracer candidate was screened across the entire library of HiBiT-GPCR constructs using NanoBRET as the detection modality. As depicted in Figure 4A, the specificity of interactions was evaluated through decrease in BRET due to competitive displacement of a bound tracer by excess parental compound. Each tracer was analyzed for binding to each HiBiT-GPCR fusion in the absence and in the presence of competing parental compound. Briefly, HEK293 cells were transfected with HiBiT-GPCR constructs diluted into promoterless DNA to reduce expression and maximize translocation to the cell surface. Each tracer candidate was then screened at concentrations of 1 μM and 0.1 μM across cells expressing these fusions. Cells were treated for 1.5 h with tracer either alone or in the presence of 20 μM competing parental compound (i.e., control). BRET was measured upon addition of purified LgBiT and subsequent complementation with HiBiT genetically fused to a GPCR. The specificity of interactions was assessed through a decrease in BRET signal due to competitive displacement of the bound tracer. To further gauge the robustness of these interactions, the fold response over the control (i.e., BRETtracer/BRETcontrol) was calculated. We chose a 1.5-fold response, which translates to ≥7-fold signal over noise as the minimal threshold required to score an interaction as positive. […]. Below we highlight the screening results obtained for our exemplary fluorescent tracers based on Clozapine, Amitriptyline and AZD1283.
(§2) HiBiT-GPCR DNA constructs were diluted in 10 mM Tris pH 8 to a final concentration of 0.01 μg/μL, arrayed in 96-well plates and stored at −20 °C. For transfection, HEK293 cells were suspended in Opti-MEM (without phenol red) supplemented with 2% fetal bovine serum (Seradigm) and 100 units/mL penicillin–streptomycin (Gibco) at a final concentration of 220,000 cells/mL and dispensed into white 96-well plates at 90 μL/well. Subsequent transfections and screens were carried using an Agilent Bravo Automated Liquid Handling Platform. First, the 96-well HiBiT DNA arrays were diluted 25-fold in Opti-MEM (without serum or phenol red) to a final concentration of 0.0004 μg/μL and 20 μL of the diluted DNAs were transferred into new 96-well plates. Next, promoterless carrier DNA (1 μg/μL) was diluted 25-fold (0.04 μg/μL) and then dispensed into the diluted arrays at 20 μL/well. Following brief mixing, Viafect transfection reagent (Promega) diluted 16-fold into Opti-MEM was dispensed into the plates at 40 μL/well. After mixing by pipetting, plates were incubated for 10 min on the pipetting station deck. The DNA-transfection reagent complexes were then added to plates containing cells. To facilitate the screen, 10 μL of DNA-transfection reagent complexes were added in duplicates to the top 4 and bottom 4 rows, resulting in two identical 48-well arrays per plate. Plates with transfected cells were incubated for 18–20 h at 37 °C/5% CO2. A screen of each tracer across the entire library using two different concentrations requires duplicate plates of transfected cells. Depending on the number of tracers being screened, transfections can be scaled up using the same ratios. The next day, for each tracer, four 20× screening solutions in tracer dilution buffer (Promega) were prepared: two duplicates at final concentration of 20 μM and two duplicates at a final concentration of 2 μM. A competing unmodified compound was added to one of each duplicate at a final concentration of 400 μM. The four resulting solutions were diluted 4-fold in Opti-MEM without serum or phenol red to generate 5× solutions (5 µM and 0.5 µM tracer +/− 100 μM competing compound). To screen the library, a BioTek MultiFlo FX liquid dispenser was used to dispense 22.5 µL of tracer solution to the top 4 rows and 22.5 µL tracer + competing compound solution to the 4 bottom rows. Plates were briefly mixed on an orbital shaker and incubated for 1.5 h at room temperature. […]

FPR1 = target: T2, FPR1 (Homo sapiens, UniProt P21462); experiment: NanoBRET screen HiBiT-FPR1 in HEK293
T2 construct: purchased Promega (in-house HiBiT-GPCR construct library, NanoBRET)
T2 sequence (P21462 1-350): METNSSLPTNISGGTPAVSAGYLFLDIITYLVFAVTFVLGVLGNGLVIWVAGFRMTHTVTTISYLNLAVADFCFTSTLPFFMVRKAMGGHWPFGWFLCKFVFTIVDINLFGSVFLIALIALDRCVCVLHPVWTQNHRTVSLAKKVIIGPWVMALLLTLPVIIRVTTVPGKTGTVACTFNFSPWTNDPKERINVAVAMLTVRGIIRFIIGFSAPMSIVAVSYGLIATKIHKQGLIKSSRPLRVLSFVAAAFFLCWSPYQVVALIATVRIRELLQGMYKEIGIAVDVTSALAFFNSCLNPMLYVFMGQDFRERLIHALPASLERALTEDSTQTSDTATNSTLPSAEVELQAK
Protocol: as §1, §2

P2RY13 = target: T3, P2RY13 (Homo sapiens, UniProt Q9BPV8); experiment: NanoBRET screen HiBiT-P2RY13 in HEK293
T3 construct: purchased Promega (in-house HiBiT-GPCR construct library, NanoBRET)
T3 sequence (Q9BPV8 1-354): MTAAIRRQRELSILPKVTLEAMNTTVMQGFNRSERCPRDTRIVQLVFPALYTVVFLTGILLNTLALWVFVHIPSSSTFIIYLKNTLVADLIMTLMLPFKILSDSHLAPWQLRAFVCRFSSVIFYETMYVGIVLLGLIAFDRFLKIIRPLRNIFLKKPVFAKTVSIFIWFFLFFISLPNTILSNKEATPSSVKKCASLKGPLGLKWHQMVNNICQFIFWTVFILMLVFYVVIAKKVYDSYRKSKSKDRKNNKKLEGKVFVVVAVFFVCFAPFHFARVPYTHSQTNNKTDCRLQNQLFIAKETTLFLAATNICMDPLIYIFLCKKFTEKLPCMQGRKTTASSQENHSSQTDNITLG
Protocol: as §1, §2

F2RL3 = target: T4, F2RL3 (Homo sapiens, UniProt Q96RI0); experiment: NanoBRET screen HiBiT-F2RL3 in HEK293
T4 construct: purchased Promega (in-house HiBiT-GPCR construct library, NanoBRET)
T4 sequence (Q96RI0 18-385): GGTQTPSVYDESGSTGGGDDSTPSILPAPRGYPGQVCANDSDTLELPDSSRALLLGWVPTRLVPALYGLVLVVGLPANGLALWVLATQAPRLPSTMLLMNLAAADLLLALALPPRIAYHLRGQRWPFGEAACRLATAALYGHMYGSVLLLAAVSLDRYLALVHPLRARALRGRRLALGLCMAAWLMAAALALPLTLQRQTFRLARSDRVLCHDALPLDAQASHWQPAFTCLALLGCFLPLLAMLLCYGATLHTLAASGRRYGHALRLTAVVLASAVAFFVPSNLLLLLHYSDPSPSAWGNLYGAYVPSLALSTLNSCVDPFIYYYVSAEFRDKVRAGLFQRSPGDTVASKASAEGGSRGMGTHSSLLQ
Protocol: as §1, §2

FZD7 = target: T5, FZD7 (Homo sapiens, UniProt O75084); experiment: NanoBRET screen HiBiT-FZD7 in HEK293
T5 construct: purchased Promega (in-house HiBiT-GPCR construct library, NanoBRET)
Protocol: as §1, §2

[1] = tracer at 0.1μM, listed as amitriptyline-b-2-NB590
[2] = tracer at 1μM, listed as amitriptyline-b-2-NB590

T1 sequence (P41146 whole entry): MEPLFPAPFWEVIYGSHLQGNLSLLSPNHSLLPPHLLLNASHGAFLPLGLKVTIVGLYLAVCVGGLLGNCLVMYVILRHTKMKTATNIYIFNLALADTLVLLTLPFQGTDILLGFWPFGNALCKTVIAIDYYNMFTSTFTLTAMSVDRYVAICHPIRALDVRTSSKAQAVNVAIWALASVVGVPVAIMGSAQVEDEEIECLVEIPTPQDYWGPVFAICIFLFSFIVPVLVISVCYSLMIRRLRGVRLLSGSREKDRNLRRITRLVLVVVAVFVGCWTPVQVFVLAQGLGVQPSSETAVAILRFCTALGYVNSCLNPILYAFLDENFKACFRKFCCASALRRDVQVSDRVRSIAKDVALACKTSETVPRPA

## CCOC(=O)c1cc(C#N)c(N2CCC(C(=O)NS(=O)(=O)Cc3ccccc3/C=C/C(=O)NCCNC(=O)CCc3ccc4n3[B-](F)(F)[N+]3=C(c5ccc[nH]5)C=CC3=C4)CC2)nc1C [AZD1283-1-NB590]
OPRL1; OPRL1, 0.1μM
  NanoBRET Fold Response: 0.98
OPRL1; OPRL1, 1μM
  NanoBRET Fold Response: 1.15
FPR1; FPR1, 0.1μM
  NanoBRET Fold Response: 1.09
FPR1; FPR1, 1μM
  NanoBRET Fold Response: 1.05
P2RY13; P2RY13, 0.1μM
  NanoBRET Fold Response: 1.93
P2RY13; P2RY13, 1μM
  NanoBRET Fold Response: 1.83
F2RL3; F2RL3, 0.1μM
  NanoBRET Fold Response: 1.04
F2RL3; F2RL3, 1μM
  NanoBRET Fold Response: 1.09
FZD7; FZD7, 0.1μM
  NanoBRET Fold Response: 1.03
FZD7; FZD7, 1μM
  NanoBRET Fold Response: 1.04

## N#CN=C(NCCCOc1cccc(CN2CCCCC2)c1)NCCNC(=O)CCOCCOCCOCCOCCNC(=O)CCc1ccc2n1[B-](F)(F)[N+]1=C(c3ccc[nH]3)C=CC1=C2 [Aminopotentidine-2-NB590]
OPRL1; OPRL1, tracer 0.1μM
  NanoBRET Fold Response: 1.05
OPRL1; OPRL1, tracer 1μM
  NanoBRET Fold Response: 1.01
FPR1; FPR1, tracer 0.1μM
  NanoBRET Fold Response: 0.99
FPR1; FPR1, tracer 1μM
  NanoBRET Fold Response: 0.97
P2RY13; P2RY13, tracer 0.1μM
  NanoBRET Fold Response: 0.97
P2RY13; P2RY13, tracer 1μM
  NanoBRET Fold Response: 1.02
F2RL3; F2RL3, tracer 0.1μM
  NanoBRET Fold Response: 0.99
F2RL3; F2RL3, tracer 1μM
  NanoBRET Fold Response: 1.06
FZD7; FZD7, tracer 0.1μM
  NanoBRET Fold Response: 0.94
FZD7; FZD7, tracer 1μM
  NanoBRET Fold Response: 0.99

## CN(C)CCC=C1c2ccccc2CCc2ccc(C(=O)NCCNC(=O)CCOCCOCCOCCOCCNC(=O)CCc3ccc4n3[B-](F)(F)[N+]3=C(c5ccc[nH]5)C=CC3=C4)cc21 [Amitriptyline-a-2-NB590]
OPRL1; tracer at 0.1μM
  NanoBRET Fold Response: 1.01
OPRL1; tracer at 1μM
  NanoBRET Fold Response: 0.95
FPR1; tracer at 0.1μM
  NanoBRET Fold Response: 1.02
FPR1; tracer at 1μM
  NanoBRET Fold Response: 1.04
P2RY13; tracer at 0.1μM
  NanoBRET Fold Response: 1.09
P2RY13; tracer at 1μM
  NanoBRET Fold Response: 0.85
F2RL3; tracer at 0.1μM
  NanoBRET Fold Response: 1.00
F2RL3; tracer at 1μM
  NanoBRET Fold Response: 1.03
FZD7; tracer at 0.1μM
  NanoBRET Fold Response: 0.89
FZD7; tracer at 1μM
  NanoBRET Fold Response: 0.97

## CN(C)CCC=C1c2ccccc2CCc2ccc(C(=O)NCCNC(=O)CCOCCOCCOCCOCCNC(=O)CCc3ccc4n3[B-](F)(F)[N+]3=C(c5ccc[nH]5)C=CC3=C4)cc21 [Amitriptyline-b-2-NB590]
OPRL1; [1]
  NanoBRET Fold Response: 1.14
OPRL1; [2]
  NanoBRET Fold Response: 1.14
FPR1; tracer at 0.1μM
  NanoBRET Fold Response: 0.96
FPR1; [2]
  NanoBRET Fold Response: 1.02
P2RY13; [1]
  NanoBRET Fold Response: 1.08
P2RY13; [2]
  NanoBRET Fold Response: 0.96
F2RL3; [1]
  NanoBRET Fold Response: 0.94
F2RL3; [2]
  NanoBRET Fold Response: 1.04
FZD7; [1]
  NanoBRET Fold Response: 1.16
FZD7; [2]
  NanoBRET Fold Response: 1.16
